Test results: PubChem BioAssay (NCI)
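How tested: cells in 96-well plates exposed to compound for 48 hours at five concentrations. The concentration for full growth arrest is given as TGI.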

What was measured:
Experiment in all cases: DTP human tumour cell line panel, 48 h
MDA-MB-435 = system: MDA-MB-435
SF-268 CNS = system: SF-268 CNS
OVCAR-8 ovarian = system: OVCAR-8 ovarian
EKVX NSCLC = system: EKVX NSCLC
PC-3 prostate = system: PC-3 prostate
MALME-3M melanoma = system: MALME-3M melanoma
UACC-62 melanoma = system: UACC-62 melanoma
DU-145 prostate = system: DU-145 prostate
MCF7 breast = system: MCF7 breast
SW-620 colon = system: SW-620 colon
MOLT-4 leukemia = system: MOLT-4 leukemia
786-0 renal = system: 786-0 renal
CAKI-1 renal = system: CAKI-1 renal
U251 CNS = system: U251 CNS
SN12C renal = system: SN12C renal
HS 578T breast = system: HS 578T breast
SR leukemia = system: SR leukemia
A498 renal = system: A498 renal
NCI-H522 lung = system: NCI-H522 lung
HL-60(TB) leukemia = system: HL-60(TB) leukemia
RPMI-8226 leukemia = system: RPMI-8226 leukemia
SNB-75 CNS = system: SNB-75 CNS
HCC-2998 colon = system: HCC-2998 colon
SK-MEL-2 melanoma = system: SK-MEL-2 melanoma
SF-295 CNS = system: SF-295 CNS
HT29 colon = system: HT29 colon
MDA-MB-231 breast = system: MDA-MB-231 breast
SF-539 CNS = system: SF-539 CNS
NCI-H23 lung = system: NCI-H23 lung
RXF 393 renal = system: RXF 393 renal
HCT-116 colon = system: HCT-116 colon
UACC-257 melanoma = system: UACC-257 melanoma
OVCAR-4 ovarian = system: OVCAR-4 ovarian
MDA-N = system: MDA-N
CCRF-CEM leukemia = system: CCRF-CEM leukemia
NCI/ADR-RES ovarian = system: NCI/ADR-RES ovarian
A549 NSCLC = system: A549 NSCLC
HOP-92 NSCLC = system: HOP-92 NSCLC
SK-MEL-28 melanoma = system: SK-MEL-28 melanoma
UO-31 renal = system: UO-31 renal
OVCAR-3 ovarian = system: OVCAR-3 ovarian
LOX IMVI melanoma = system: LOX IMVI melanoma
NCI-H226 lung = system: NCI-H226 lung
HOP-62 NSCLC = system: HOP-62 NSCLC
IGROV1 ovarian = system: IGROV1 ovarian
M14 melanoma = system: M14 melanoma
ACHN renal = system: ACHN renal
HCT-15 colon = system: HCT-15 colon
SK-MEL-5 melanoma = system: SK-MEL-5 melanoma
KM12 colon = system: KM12 colon
OVCAR-5 ovarian = system: OVCAR-5 ovarian
K-562 leukemia = system: K-562 leukemia
SK-OV-3 ovarian = system: SK-OV-3 ovarian
SNB-19 CNS = system: SNB-19 CNS
T-47D breast = system: T-47D breast
NCI-H460 lung = system: NCI-H460 lung
COLO 205 colon = system: COLO 205 colon
TK-10 renal = system: TK-10 renal

**Q.** With `O=C(NCC(=O)N1CCCC1C(=O)OC(=O)C1CCCN1C(=O)CNC(=O)OCc1ccccc1)OCc1ccccc1` (stereo not drawn) as the compound, how does the TGI (MDA-MB-435) read?
**A.** The TGI was 68.3 µM.

**Q.** And the TGI (SF-268 CNS)?
**A.** Its TGI is 89 µM.

**Q.** What about the TGI (OVCAR-8 ovarian) of the same compound?
**A.** Its TGI is over 100 µM.

**Q.** And the TGI (EKVX NSCLC)?
**A.** Its TGI is over 100 µM.

**Q.** What about the TGI (PC-3 prostate) of the same compound?
**A.** The TGI was over 100 µM.

**Q.** And the TGI (MALME-3M melanoma)?
**A.** The TGI was 64.8 µM.

**Q.** What about the TGI (UACC-62 melanoma) of the same compound?
**A.** Its TGI is 34.6 µM.

**Q.** What about the TGI (DU-145 prostate) of the same compound?
**A.** Its TGI is over 100 µM.

**Q.** And the TGI (MCF7 breast)?
**A.** The TGI was 60 µM.

**Q.** And the TGI (SW-620 colon)?
**A.** Its TGI is over 100 µM.

**Q.** And the TGI (MOLT-4 leukemia)?
**A.** Its TGI is 67.1 µM.

**Q.** What about the TGI (786-0 renal) of the same compound?
**A.** The TGI was over 100 µM.

**Q.** And the TGI (CAKI-1 renal)?
**A.** The TGI was over 100 µM.

**Q.** What about the TGI (U251 CNS) of the same compound?
**A.** The TGI was over 100 µM.

**Q.** What about the TGI (SN12C renal) of the same compound?
**A.** The TGI was over 100 µM.

**Q.** What about the TGI (HS 578T breast) of the same compound?
**A.** Its TGI is over 100 µM.

**Q.** And the TGI (SR leukemia)?
**A.** Its TGI is over 100 µM.

**Q.** What about the TGI (A498 renal) of the same compound?
**A.** Its TGI is over 100 µM.

**Q.** What about the TGI (NCI-H522 lung) of the same compound?
**A.** Its TGI is over 100 µM.

**Q.** What about the TGI (HL-60(TB) leukemia) of the same compound?
**A.** The TGI was 70.3 µM.

**Q.** What about the TGI (RPMI-8226 leukemia) of the same compound?
**A.** Its TGI is 70.2 µM.

**Q.** And the TGI (SNB-75 CNS)?
**A.** Its TGI is 57.2 µM.

**Q.** And the TGI (HCC-2998 colon)?
**A.** The TGI was over 100 µM.

**Q.** What about the TGI (SK-MEL-2 melanoma) of the same compound?
**A.** The TGI was 44.8 µM.

**Q.** What about the TGI (SF-295 CNS) of the same compound?
**A.** The TGI was 47.8 µM.

**Q.** And the TGI (HT29 colon)?
**A.** Its TGI is 79.2 µM.

**Q.** And the TGI (MDA-MB-231 breast)?
**A.** The TGI was 54.7 µM.

**Q.** And the TGI (SF-539 CNS)?
**A.** Its TGI is 40.6 µM.

**Q.** And the TGI (NCI-H23 lung)?
**A.** The TGI was over 100 µM.

**Q.** And the TGI (RXF 393 renal)?
**A.** The TGI was 64.5 µM.

**Q.** What about the TGI (HCT-116 colon) of the same compound?
**A.** The TGI was over 100 µM.

**Q.** And the TGI (UACC-257 melanoma)?
**A.** The TGI was 52.1 µM.

**Q.** And the TGI (OVCAR-4 ovarian)?
**A.** Its TGI is over 100 µM.

**Q.** And the TGI (MDA-N)?
**A.** The TGI was over 100 µM.

**Q.** What about the TGI (CCRF-CEM leukemia) of the same compound?
**A.** The TGI was over 100 µM.

**Q.** What about the TGI (NCI/ADR-RES ovarian) of the same compound?
**A.** The TGI was over 100 µM.

**Q.** And the TGI (A549 NSCLC)?
**A.** The TGI was over 100 µM.

**Q.** And the TGI (HOP-92 NSCLC)?
**A.** The TGI was over 100 µM.

**Q.** And the TGI (SK-MEL-28 melanoma)?
**A.** The TGI was 70.4 µM.

**Q.** What about the TGI (UO-31 renal) of the same compound?
**A.** Its TGI is over 100 µM.

**Q.** What about the TGI (OVCAR-3 ovarian) of the same compound?
**A.** The TGI was over 100 µM.

**Q.** And the TGI (LOX IMVI melanoma)?
**A.** Its TGI is 36.2 µM.

**Q.** What about the TGI (NCI-H226 lung) of the same compound?
**A.** Its TGI is 66.2 µM.

**Q.** What about the TGI (HOP-62 NSCLC) of the same compound?
**A.** The TGI was 77 µM.

**Q.** What about the TGI (IGROV1 ovarian) of the same compound?
**A.** The TGI was over 100 µM.

**Q.** And the TGI (M14 melanoma)?
**A.** Its TGI is 45.7 µM.

**Q.** What about the TGI (ACHN renal) of the same compound?
**A.** The TGI was over 100 µM.

**Q.** What about the TGI (HCT-15 colon) of the same compound?
**A.** The TGI was over 100 µM.

**Q.** What about the TGI (SK-MEL-5 melanoma) of the same compound?
**A.** The TGI was 62.3 µM.

**Q.** And the TGI (KM12 colon)?
**A.** Its TGI is over 100 µM.

**Q.** And the TGI (OVCAR-5 ovarian)?
**A.** The TGI was 90.1 µM.

**Q.** And the TGI (K-562 leukemia)?
**A.** Its TGI is 72.8 µM.

**Q.** And the TGI (SK-OV-3 ovarian)?
**A.** Its TGI is over 100 µM.

**Q.** And the TGI (SNB-19 CNS)?
**A.** Its TGI is over 100 µM.

**Q.** What about the TGI (T-47D breast) of the same compound?
**A.** Its TGI is over 100 µM.

**Q.** What about the TGI (NCI-H460 lung) of the same compound?
**A.** The TGI was over 100 µM.

**Q.** What about the TGI (COLO 205 colon) of the same compound?
**A.** Its TGI is 33.9 µM.

**Q.** What about the TGI (TK-10 renal) of the same compound?
**A.** The TGI was 49.7 µM.
